Assay results taken from publication PMC9404711 (Antibiotics, 2022).
Read-outs that look alike come from different tables or passages of the source. Non-standard residues stand in square brackets, D forms with d. Residues, ends and D or L forms follow the SMILES beside them.

How the values were obtained:
E. coli (ATCC 25922) = type: cell-based, Escherichia coli; conditions: E. coli ATCC 25922, MHB-II, 37 °C, 18–24 h, triplicate
Experimental: (§1) The following bacteria were grown in cation-adjusted Muller-Hinton broth at 37 °C with shaking: A. baumannii (ATCC 19606), E. coli (ATCC 25922), K. pneumoniae (ATCC 13883), P. aeruginosa (ATCC 27853), and S. aureus (ATCC 29213).
(§2) The MIC experiments were performed in triplicate, as described in Jensen et al.. Briefly, all peptide stock solutions were prepared by dissolving each peptide in Milli-Q water to obtain a concentration of 10 mg/mL. A bacterial concentration of 10^6 CFU/mL was obtained through the dilution of an overnight culture (MHB-II medium). When the overnight culture was prepared, the OD was measured using a spectrophotometer and when an OD value between 0.2 and 0.4 was obtained, the culture was diluted to OD = 0.002. The MIC determination was carried out in 96-well polypropylene microtitre plates. […] A final bacterial inoculum of 5 × 10^5 CFU/mL per well was obtained by adding 50 μL bacterial suspension to the microtiter plates. The plates were incubated at 37 °C for 18–24 h. To verify the CFU, 10 μL of bacteria suspension was transferred to 990 μL 0.9 % saline solution, from which a 10-fold dilution was carried out. Then, 100 μL of the dilution was plated on an LB plate and left for bacterial growth overnight at 37 °C. Colistin and vancomycin were used as the positive controls.

[1] = tested on: K. pneumoniae (ATCC 13883); type: cell-based, Klebsiella pneumoniae; conditions: K. pneumoniae ATCC 13883, MHB-II, 37 °C, 18–24 h, triplicate
Experimental: as §1, §2

[2] = tested on: P. aeruginosa (ATCC 27853); type: cell-based, Pseudomonas aeruginosa; conditions: P. aeruginosa ATCC 27853, MHB-II, 37 °C, 18–24 h, triplicate
Experimental: as §1, §2

[3] = Hydrophobicity by analytical RP-HPLC (%B at elution); type: physicochemical; conditions: chromatographic, analytical reversed-phase HPLC, Waters Symmetry C18 5 μm 4.6 × 250 mm; A: H2O + 0.1% TFA, B: 90:10 ACN-H2O + 0.1% TFA
Experimental: Peptide purity was determined as described previously by analytical RP-HPLC using a Waters 717 plus Autosampler, In-line Degasser AF, 600 Controller, and 2996 Photodiode Array Detector; the column used was a Waters Symmetry C18 column (5 μm, 4.6 mm × 250 mm, Milford, MA, USA). An aqueous acetonitrile (ACN) gradient with 0.1% TFA added (mixing eluent A: H2O + 0.1% TFA and eluent B: 90:10 ACN-H2O + 0.1% TFA) was employed using milli-Q water. Preparative RP-HPLC was performed by using a Waters XSelect Peptide CSH C18 OBDTM column (5 μm, 19 mm × 250 mm, Milford, MA, USA) with the same eluents as for analytical HPLC.
*Hydrophobicity as indicated by the percentage of mobile phase B (%B) at the peak elution time on analytical

S. aureus (ATCC 29213) = assay: MIC determination, broth microdilution; type: cell-based, Staphylococcus aureus; conditions: S. aureus ATCC 29213, MHB-II, 37 °C, 18–24 h, triplicate
Experimental: as §1, §2

[4] = tested on: A. baumannii (ATCC 19606); type: cell-based, Acinetobacter baumannii; conditions: A. baumannii ATCC 19606, MHB-II, 37 °C, 18–24 h, triplicate
Experimental: as §1, §2

[5] = tested on: colistin-susceptible strain A. baumannii ATCC 19606; conditions: at 4 × MIC and above; cited from earlier work
human erythrocytes = conditions: 150 μM peptide; 0.5% (v/v) red blood cell suspension in PBS, 1 h at 37 °C, absorbance 414 nm; melittin positive control, PBS negative control; three wells
Experimental: PBS served as the negative control and 5 μM melittin served as the positive control. All melittin solutions were prepared in Protein LoBind Eppendorf tubes to prevent the adsorption of melittin to the inner surface of the tubes.
Preparation of peptide solutions and melittin: A 5 μM melittin solution in PBS was prepared the day before the hemolysis experiment. First, 150 μL of this solution was transferred to each of the positive control wells and stored in the fume hood to coat the wells. On the day of the experiment, the melittin solution was discarded and the wells were washed with 3 × PBS. A 2.5 μM melittin solution in PBS was prepared and 75 μL was transferred to the wells. PBS (150 μL) was used as the negative control. A solution of each peptide was prepared by dissolving the peptide in 0.5 mL PBS to obtain a concentration of 300 μM. Each peptide solution (150 μL) was transferred to the wells in three wells each in row A, and the plate was diluted down.
Preparation of the red blood cell suspension: 1 mL of type O- whole blood in citrate was transferred to a cryotube. The whole blood was washed with 3 × PBS; adding 3, 3, and 4 mL of PBS, respectively. In between, the blood was centrifuged for 8 min (3000, 3000, and 4000 rpm, respectively) and the supernatant was removed after each centrifugation. A 0.5% (v/v) blood suspension was prepared by adding 40 μL of the washed blood cells to 8 mL of PBS. Then, 75 μL of the red blood cell suspension was transferred to each well and mixed gently. The plate was sealed and incubated for 1 h at 37 °C. After incubation, the plate was centrifuged at 4000 rpm for 10 min. Afterwards, 60 μL of the supernatant from each well was quickly transferred to an ELISA plate.
The absorbance was determined at 414 nm, and Equation (1) below was used to calculate the hemolytic activity of the peptides.

E. coli = assay: Time-kill assay; type: cell-based, Escherichia coli; conditions: start 5 × 10^5 CFU/mL, MHB-II 37 °C, n = 3
Experimental: The limit of detection was set to 10 CFU/mL, corresponding to a single viable colony after the overnight incubation of 100 μL bacteria suspension on an agar plate.
An overnight culture (MHB-II media) of E. coli was diluted 1:100 in preheated MHB-II, placed in a water bath (37 °C), and allowed to grow until OD600 = 0.2–0.4 was reached. The bacterial suspension was then diluted 1:10 in 25 mL preheated MHB-II, placed in a water bath (37 °C), and then allowed to grow until an OD = 0.2 was reached. […] At time points 0, 1, 3, 5, and 24 h, 250 μL of each sample suspension were transferred to a 0.9 % saline solution in a 1-mL Eppendorf tube. The bacterial cells were washed twice in 0.9% saline, spun down (10,000× g for 5 min) and resuspended in 250 μL 0.9% saline. Then, 10-fold dilution series were prepared and aliquots of 10 μL were spotted onto LB Agar. In addition, 100 μL of undiluted bacterial suspension (except the control sample) was plated out on a separate LB plate. All of the plates were incubated (37 °C) overnight and the results were read after incubation.

CC[C@@H](C)[C@@H](NC(=O)[C@@H](CCCCN)NC(=O)[C@@H](CCCCN)NC(=O)[C@@H](Cc1ccccc1)NC(=O)[C@@H](CC(C)C)NC(=O)[C@@H](CCCCN)NC(=O)[C@H](N)CCCCN)C(=O)N[C@H](CC(C)C)C(=O)N[C@H](CCCNC(=N)N)C(=O)N[C@H](Cc1ccc(O)cc1)C(=O)N[C@H](CC(C)C)C(N)=O [BP214, reference compound] (H-[dK][dK][dL][dF][dK][dK][dI][dL][dR][dY][dL]-NH2; N-terminus assumed)
MIC EC (E. coli (ATCC 25922); inoculum 5 × 10^5 CFU/mL): 4 µg/mL | MIC EC (E. coli (ATCC 25922); value in brackets): 2.8 µM | MIC KP ([1]; inoculum 5 × 10^5 CFU/mL): 2 µg/mL | MIC KP ([1]; value in brackets): 1.4 µM | MIC PA ([2]; inoculum 5 × 10^5 CFU/mL): 4 µg/mL | MIC PA ([2]; value in brackets): 2.8 µM | %B (hydrophobicity: percentage of mobile phase B at the peak elution time) [3]: 50.8 %B | MIC SA (S. aureus (ATCC 29213); inoculum 5 × 10^5 CFU/mL): 8 µg/mL | MIC SA (S. aureus (ATCC 29213); value in brackets): 5.5 µM | MIC AB ([4]; inoculum 5 × 10^5 CFU/mL): 2 µg/mL | MIC AB ([4]; value in brackets): 1.4 µM | number of CFU in time-kill [5]: below the detection level

CC[C@@H](C)[C@H]1NC(=O)CN(C(=O)[C@@H](CCCCN)NC(=O)[C@@H](CCCCN)NC(=O)[C@@H](Cc2ccccc2)NC(=O)[C@@H](CC(C)C)NC(=O)[C@@H](CCCCN)NC(=O)[C@H](N)CCCCN)CCCC[C@H](C(N)=O)NC(=O)[C@@H](Cc2ccc(O)cc2)NC(=O)[C@@H](CCCNC(=N)N)NC(=O)[C@@H](CC(C)C)NC1=O [compound 9]
MIC EC (E. coli (ATCC 25922); inoculum 5 × 10^5 CFU/mL): > 64 µg/mL | MIC EC (E. coli (ATCC 25922); value in brackets): > 42.6 µM | MIC KP ([1]; inoculum 5 × 10^5 CFU/mL): > 64 µg/mL | MIC KP ([1]; value in brackets): > 42.6 µM | % hemolysis of human erythrocytes (human erythrocytes): 3% | MIC PA ([2]; inoculum 5 × 10^5 CFU/mL): > 64 µg/mL | MIC PA ([2]; value in brackets): > 42.6 µM | %B (hydrophobicity: percentage of mobile phase B at the peak elution time) [3]: 46.6 %B | MIC SA (S. aureus (ATCC 29213); inoculum 5 × 10^5 CFU/mL): > 64 µg/mL | MIC SA (S. aureus (ATCC 29213); value in brackets): > 42.6 µM | MIC AB ([4]; inoculum 5 × 10^5 CFU/mL): > 64 µg/mL | MIC AB ([4]; value in brackets): > 42.6 µM

CCCCCCCCCC(=O)N[C@H](CCCCN)C(=O)N[C@H](CCCCN)C(=O)N[C@H](CC(C)C)C(=O)N[C@H](Cc1ccccc1)C(=O)N[C@H](CCCCN)C(=O)N[C@H](CCCCN)C(=O)N[C@@H](C(=O)N[C@H](CC(C)C)C(=O)N1CCCC[C@H](C(N)=O)NC(=O)[C@@H](Cc2ccc(O)cc2)NC(=O)[C@@H](CCCNC(=N)N)NC(=O)C1)[C@H](C)CC [compound 10]
MIC EC (E. coli (ATCC 25922); inoculum 5 × 10^5 CFU/mL): 4 µg/mL | MIC EC (E. coli (ATCC 25922); value in brackets): 2.4 µM | MIC KP ([1]; inoculum 5 × 10^5 CFU/mL): 8 µg/mL | MIC KP ([1]; value in brackets): 4.8 µM | % hemolysis of human erythrocytes (human erythrocytes): 81% | MIC PA ([2]; inoculum 5 × 10^5 CFU/mL): 4 µg/mL | MIC PA ([2]; value in brackets): 2.4 µM | %B (hydrophobicity: percentage of mobile phase B at the peak elution time) [3]: 62.7 %B | MIC SA (S. aureus (ATCC 29213); inoculum 5 × 10^5 CFU/mL): 4 µg/mL | MIC SA (S. aureus (ATCC 29213); value in brackets): 2.4 µM | MIC AB ([4]; inoculum 5 × 10^5 CFU/mL): 4 µg/mL | MIC AB ([4]; value in brackets): 2.4 µM

CCCCCCCCCC(=O)N[C@H](CCCCN)C(=O)N[C@H](CCCCN)C(=O)N[C@H](CC(C)C)C(=O)N[C@H](Cc1ccccc1)C(=O)N[C@H](CCCCN)C(=O)N[C@H](CCCCN)C(=O)N[C@@H](C(=O)N1CCCC[C@H](C(N)=O)NC(=O)[C@@H](Cc2ccc(O)cc2)NC(=O)[C@@H](CCCNC(=N)N)NC(=O)[C@@H](CC(C)C)NC(=O)C1)[C@H](C)CC [compound 13]
MIC EC (E. coli (ATCC 25922); inoculum 5 × 10^5 CFU/mL): 4 µg/mL | MIC EC (E. coli (ATCC 25922); value in brackets): 2.4 µM | viable cells after 24 h (E. coli; 3 × MIC (12 μg/mL)): 10^3 CFU/mL | viable cells after 24 h (E. coli; 5 × MIC (20 μg/mL)): 10^2 CFU/mL | MIC KP ([1]; inoculum 5 × 10^5 CFU/mL): 16 µg/mL | MIC KP ([1]; value in brackets): 9.6 µM | MIC PA ([2]; inoculum 5 × 10^5 CFU/mL): 8 µg/mL | MIC PA ([2]; value in brackets): 4.8 µM | %B (hydrophobicity: percentage of mobile phase B at the peak elution time) [3]: 60.9 %B | MIC SA (S. aureus (ATCC 29213); inoculum 5 × 10^5 CFU/mL): 8 µg/mL | MIC SA (S. aureus (ATCC 29213); value in brackets): 4.8 µM | MIC AB ([4]; inoculum 5 × 10^5 CFU/mL): 2 µg/mL | MIC AB ([4]; value in brackets): 1.2 µM

CCCCCCCCCCCCCC(=O)N[C@H](CCCCN)C(=O)N[C@H](CCCCN)C(=O)N[C@H](CC(C)C)C(=O)N[C@H](Cc1ccccc1)C(=O)N[C@H](CCCCN)C(=O)N[C@H](CCCCN)C(=O)N[C@@H](C(=O)N1CCCC[C@H](C(N)=O)NC(=O)[C@@H](Cc2ccc(O)cc2)NC(=O)[C@@H](CCCNC(=N)N)NC(=O)[C@@H](CC(C)C)NC(=O)C1)[C@H](C)CC [compound 15]
MIC EC (E. coli (ATCC 25922); inoculum 5 × 10^5 CFU/mL): 4 µg/mL | MIC EC (E. coli (ATCC 25922); value in brackets): 2.3 µM | MIC KP ([1]; inoculum 5 × 10^5 CFU/mL): 16 µg/mL | MIC KP ([1]; value in brackets): 9.3 µM | % hemolysis of human erythrocytes (human erythrocytes): 83% | MIC PA ([2]; inoculum 5 × 10^5 CFU/mL): 8 µg/mL | MIC PA ([2]; value in brackets): 4.6 µM | %B (hydrophobicity: percentage of mobile phase B at the peak elution time) [3]: 78.5 %B | MIC SA (S. aureus (ATCC 29213); inoculum 5 × 10^5 CFU/mL): 4 µg/mL | MIC SA (S. aureus (ATCC 29213); value in brackets): 2.3 µM | MIC AB ([4]; inoculum 5 × 10^5 CFU/mL): 4 µg/mL | MIC AB ([4]; value in brackets): 2.3 µM

CCCCCCCCCC(=O)N[C@H](CCCCN)C(=O)N[C@H](CCCCN)C(=O)N[C@H](CC(C)C)C(=O)N[C@H](Cc1ccccc1)C(=O)N[C@H](CCCCN)C(=O)N[C@H](CCCCN)C(=O)N1CCCC[C@H](C(N)=O)NC(=O)[C@@H](Cc2ccc(O)cc2)NC(=O)[C@@H](CCCNC(=N)N)NC(=O)[C@@H](CC(C)C)NC(=O)[C@@H]([C@H](C)CC)NC(=O)C1 [compound 16]
MIC EC (E. coli (ATCC 25922); inoculum 5 × 10^5 CFU/mL): 8 µg/mL | MIC EC (E. coli (ATCC 25922); value in brackets): 4.8 µM | MIC KP ([1]; inoculum 5 × 10^5 CFU/mL): 16 µg/mL | MIC KP ([1]; value in brackets): 9.7 µM | % hemolysis of human erythrocytes (human erythrocytes): 59% | MIC PA ([2]; inoculum 5 × 10^5 CFU/mL): 8 µg/mL | MIC PA ([2]; value in brackets): 4.8 µM | %B (hydrophobicity: percentage of mobile phase B at the peak elution time) [3]: 61.3 %B | MIC SA (S. aureus (ATCC 29213); inoculum 5 × 10^5 CFU/mL): 4 µg/mL | MIC SA (S. aureus (ATCC 29213); value in brackets): 2.4 µM | MIC AB ([4]; inoculum 5 × 10^5 CFU/mL): 4 µg/mL | MIC AB ([4]; value in brackets): 2.4 µM
